In patent publication US9499614B2, “Methods for modulating protein glycosylation profiles of recombinant protein therapeutics using monosaccharides and oligosaccharides” (AbbVie, Inc., priority 2013, dated 2016):

Experiments:
Cell Line 2 [1] = experiment: Shake flask semi-fedbatch culture of Cell Line 2, cell culture performance (Example 1); format: cell-based, Chinese Hamster; settings: 7 mM
Method: (§1) Two recombinant Chinese Hamster Ovary (CHO) cell lines expressing two different humanized monoclonal antibodies (Antibody 1, Antibody 2) were evaluated in two different culture vessels (shaker flasks and laboratory scale bioreactors). Both cell lines were of CHO DUX-B11 origin based on a dhfr (dihydrofolate reductase) expression system. Both cell lines were cultured in the same chemically defined basal media (CDBM), with Cell Line 1 also utilizing a chemically-defined feed media (CDFM). Each of the respective media were supplemented with selected monosaccharides and oligosaccharides to evaluate their potential impact on the resulting N-glycan oligosaccharide profile. In preparing the cultures, the cell lines were serially expanded through separate seed train inoculums to generate enough cells for inoculation.
Viable cell density (VCD) and cell viability values were measured through trypan blue exclusion via Cedex automated cell counters (Roche Applied Science, Indianapolis, Ind.), glucose and lactate values were measured with a ABL-805 (Radiometer Medical, Denmark) blood gas analyzer. Offline pH, dissolved oxygen (DO), and pCO2 measurements were performed with a ABL-805 (Radiometer Medical, Denmark) blood gas analyzer. Osmolality was measured on a Multi-Osmette 2430 osmometer (Precision Systems, Natick, Mass.).
Antibody titers were measured from crude cell culture harvests on a Poros A™ (Life Technologies, Carlsbad, Calif.) affinity column using an Agilent (Santa Clara, Calif.) 1200 Series HPLC, or equivalent, operating with a low pH, step elution gradient with detection at 280 nm. Absolute concentrations were assigned with respect to reference standard calibration curves.
Cell Line 2 was evaluated in shake flask culture in semi-fedbatch mode. Sucrose was supplemented into the basal media at various concentrations to evaluate the resulting impact on cell culture performance, as well as the protein glycosylation profile. […] There was however, a very significant impact on the protein glycosylation profiles of harvest samples across all sucrose concentrations evaluated (FIG. 12). […]

Cell Line 2 [2] = experiment: N-glycan oligosaccharide profiling, Cell Line 2 shake flasks (Example 1); format: cell-based, Chinese Hamster; settings: 30 mM supplement vs control
Method: as §1
Purified antibodies subjected to additional analytical characterization were purified using MabSelect™ Protein A (GE Healthcare, Piscataway, N.J.) using a low pH, step elution gradient, followed by buffer exchange using Corning Lifesciences (Tewksbury, Mass.) Spin Concentrator X UF columns according to the manufacturers' recommended procedures.
Approximately 200 μg of Protein A purified samples from Cell Lines 1 and 2 were treated with N-glycanase at 37° C. overnight to remove the N-glycans from the protein. The protein was precipitated and the supernatant was taken for subsequent chemical derivatization of the reducing end of the released glycans with 2-aminobenzamide (2-AB) dye. Following the derivatization step, the excess label was removed using clean up cartridges and the samples were analyzed using normal phase HPLC with fluorescent detection. Mobile phase A was 100% acetonitrile and mobile phase B was 50 mM ammonium formate pH 4.4. The glycans were eluted from a polyamide column (Prozyme, Hayward, Calif.) using a shallow gradient. The labeled glycans were detected using a fluorescence detector with an excitation wavelength of 330 nm and an emission wavelength of 420 nm.
Cell Line 2 was evaluated in shake flask culture in semi-fedbatch mode. Sucrose was supplemented into the basal media at various concentrations to evaluate the resulting impact on cell culture performance, as well as the protein glycosylation profile. On average, 7 mM, 15 mM, and 30 mM sucrose all nominally impacted overall cell growth, with only slight drops in peak viable cell density (1×10^6-2×10^6 cells/mL) as compared to the unsupplemented control. […] There was however, a very significant impact on the protein glycosylation profiles of harvest samples across all sucrose concentrations evaluated (FIG. 12). A concentration-dependent modulation of protein glycosylation was observed that was consistent with the results obtained for Cell Line 1.

OC[C@H]1O[C@@](CO)(O[C@H]2O[C@H](CO)[C@@H](O)[C@H](O)[C@H]2O)[C@@H](O)[C@@H]1O [sucrose]
cell viability (Cell Line 2 [1]; 15 mM and 30 mM): not significantly different from each other | harvest titer (Cell Line 2 [1]; 15 mM and 30 mM): not significantly different from each other | drop in peak viable cell density (Cell Line 2 [1]; 15 mM and 30 mM vs control): 1×10^6-2×10^6 cells/mL | cumulative increase in overall mannosylated N-glycans (Cell Line 2 [2]): 19% | drop in NGA2F species (Cell Line 2 [2]): 27% | drop in overall fucosylation (Cell Line 2 [2]): 19% | increase in Man 5 species (Cell Line 2 [2]): ≤ 17% | increase in Man 6 species (Cell Line 2 [2]): 1% | increase in Man 7 species (Cell Line 2 [2]): 1%
